Laboratory results from patent US12544356B2, “Combination of a chromene compound and a second active agent” (EUCLISES PHARMACEUTICALS, INC., priority 2016, dated 2026).

Columns and labels:
prostaglandin E2 (PGE2) = assay: CT26 tumoral PGE-2 (Example 6); type: in vivo, Female Harlan Balb/c mice (BALB/cAnNHsd); details: 10 mg/kg (Group 8)
Description: (§1) CT26 murine colon carcinoma cells were prepared as in Example 2. Female Harlan Balb/c mice (BALB/cAnNHsd) were inoculated with 5×10^5 CT26 cells suspended in PBS (200 μL) subcutaneously high in the axilla (just under the fore limb). All mice were sorted into study groups based on caliper measurement estimation of tumor burden on Day 8 when the mean tumor burden for all animals was approximately 79 mm^3 (range of group means, 75-83 mm^3).

PGE-2 = assay: Tumoral PGE-2 in HT-29 tumors (Example 5); type: in vivo, CB17SCID mice; details: HT-29 tumor, day 24; 10 mg/kg
Description: (§2) HT-29 cells were prepared and implanted by standard methods using the same procedure as Example 1.
(§3) 42 CB17SCID mice were implanted with 2.5×10^6 HT-29 cells.
(§4) Mouse weight and tumor volume measurements were taken on days 0, 3, 6, 9, 12, 15, 18, 21, and 22 following randomization. After 22 days dosing, the blood from each animal was collected at 2 hours and 6 hours post dose.

[1] = tested on: HT-29 xenograft colon carcinoma model; assay: HT-29 xenograft tumor volume, Compound A01 vs celecoxib (Example 5); type: in vivo, CB17SCID mice; details: 10 mg/kg oral daily
Description: as §2, §3, §4

[2] = tested on: CT26.WT murine colon carcinomas; assay: CT26 tumor volume, Compound A01 vs celecoxib (Example 6); type: in vivo, Female Harlan Balb/c mice (BALB/cAnNHsd)
Description: as §1

[3] = tested on: HT-29 xenograft murine colon carcinoma model; assay: HT-29 xenograft tumor growth, Compound A01 with erlotinib (Example 1); type: in vivo, CB17SCID male mice; details: for Tumor Volume: erlotinib 50 mg/kg oral daily
Description: HT-29 cells were cultured in medium for one week. Following digestion cells were centrifuged for 3-5 minutes at 800-1500 rpm. Cells were washed with PBS and centrifuged again under the same condition. Cells were then suspended in PBS to a final concentration of […]. 200 μL of the HT-29 cell suspension were subcutaneously injected into the mice left forelimb axillary (2.5×10^6 HT-29 cells per mouse).
(§5) 48 CB17SCID male mice were implanted with 2.5×10^6 HT29 cells. Growth of the tumor was calculated for each animal using a caliper and the equation: V=π×ab^2/6.
(§6) Mouse weight and tumor volume measurements were taken on days 0, 3, 6, 9, 12, 15, 18, 21, and 22 following randomization.

[4] = Body weight in HT-29 xenograft study (Example 1); type: in vivo, CB17SCID male mice; details: erlotinib 50 mg/kg oral daily
Description: as §5, §6

[5] = Plasma concentration of Compound A01 and erlotinib (Example 1); type: in vivo, CB17SCID male mice; details: male, CB17SCID, mouse, plasma, oral, 50 mg/kg
Description: as §5, §6

[6] = Intratumoral concentration of Compound A01 and erlotinib (Example 1); type: in vivo, CB17SCID male mice; details: male, CB17SCID, mouse, tumor (HT-29 xenograft), oral, 50 mg/kg
Description: as §5, §6

PGE2 = assay: Intratumoral concentration of PGE2 in HT-29 tumors (Example 1); type: in vivo, CB17SCID male mice; details: HT-29 tumor, day 24; erlotinib 50 mg/kg
Description: as §5, §6

## Cc1ccc(-c2cc(C(F)(F)F)nn2-c2ccc(S(N)(=O)=O)cc2)cc1 [Celecoxib, celecoxib, reference compound]
Prostaglandin E2 (PGE2)
  Mean PGE-2 Concentration (CT26 tumoral): 1140 ng/g
PGE-2
  Mean PGE-2 (tumoral): 233.3 ± 267.2 ng/g
[1]; Day 0
  Tumor Volume: 67.9 mm^3
[1]; Day 3
  Tumor Volume: 81.8 mm^3
[1]; Day 6
  Tumor Volume: 143.4 mm^3
[1]; Day 9
  Tumor Volume: 244.5 mm^3
[1]; Day 12
  Tumor Volume: 285.5 mm^3
[1]; Day 15
  Tumor Volume: 380.9 mm^3
[1]; Day 18
  Tumor Volume: 541.2 mm^3
[1]; Day 21
  Tumor Volume: 736.1 mm^3
[1]; Day 22
  Tumor Volume: 803.4 mm^3
[2]; Day 8, 10 mg/kg
  CT26 Tumor Volume: 79 ± 4 mm^3
[2]; Day 8, 30 mg/kg
  CT26 Tumor Volume: 76 ± 5 mm^3
[2]; Day 10, 10 mg/kg
  CT26 Tumor Volume: 134 ± 11 mm^3
[2]; Day 10, 30 mg/kg
  CT26 Tumor Volume: 131 ± 17 mm^3
[2]; Day 13, 10 mg/kg
  CT26 Tumor Volume: 369 ± 42 mm^3
[2]; Day 13, 30 mg/kg
  CT26 Tumor Volume: 415 ± 66 mm^3
[2]; Day 15, 10 mg/kg
  CT26 Tumor Volume: 594 ± 84 mm^3
[2]; Day 15, 30 mg/kg
  CT26 Tumor Volume: 685 ± 93 mm^3
[2]; Day 17, 10 mg/kg
  CT26 Tumor Volume: 904 ± 92 mm^3
[2]; Day 17, 30 mg/kg
  CT26 Tumor Volume: 1046 ± 144 mm^3

## C#Cc1cccc(Nc2ncnc3cc(OCCOC)c(OCCOC)cc23)c1 [Erlotinib, erlotinib, reference compound]
[3]; Day 0
  Tumor Volume: 73.7 mm^3
[3]; Day 3
  Tumor Volume: 156.9 mm^3
[3]; Day 6
  Tumor Volume: 192.0 mm^3
[3]; Day 9
  Tumor Volume: 241.0 mm^3
[3]; Day 12
  Tumor Volume: 299.1 mm^3
[3]; Day 15
  Tumor Volume: 394.5 mm^3
[3]; Day 18
  Tumor Volume: 641.1 mm^3
[3]; Day 21
  Tumor Volume: 691.4 mm^3
[3]; Day 22
  Tumor Volume: 774.8 mm^3
[3]; erlotinib alone (50 mg/kg)
  suppression of tumor growth compared to vehicle: 38%
[4]; Day 0
  Body weight: 22.4 g
[4]; Day 3
  Body weight: 22.4 g
[4]; Day 15
  Body weight: 20.5 g
[4]; Day 21
  Body weight: 21.0 g
[5]
  concentration at 2 h: 3340 ± 1590 ng/mL
  concentration at 6 h: 1260 ± 520 ng/mL
[6]
  concentration at 24 day: < 80000 ng/g
PGE2
  Intratumoral concentration of PGE2 (mean ± SD): 160.6 ± 89.5 µg/g
